Results: PMC11435220, “Anticancer Activity of Imidazolyl Gold(I/III) Compounds in Non-Small Cell Lung Cancer Cell Lines” (Pharmaceuticals, 2024)
Where two headings read alike, the source gives them in different places.

How the values were obtained:
[1] = tested on: H1355; experiment: MTT viability assay, H1355; assay type: cell-based, human; settings: mean ± span, 48 h treatment, cell line with KRAS mutation
Description: (§1) NSCLC cell lines were obtained from the Hamon Center for Therapeutic Oncology Research (UT Southwestern Medical Center). IMR-90 human lung fibroblasts were from ATCC (CC-186). All cell lines were maintained and treated in RPMI medium (Cytiva (Shanghai, China), #SH30027), supplemented with 10% heat-inactivated FBS (Millipore Sigma (Darmstadt, Germany), F0394).
(§2) 5000–10,000 cells/0.1 mL/well were seeded in 96-well plates to achieve 70% confluence after 24 h. All drug stock solutions were prepared fresh in DMSO at a concentration of 10 mM. The day after cell plating, we added 0.1 mL of medium containing the appropriate drug dilutions. After 48 h of treatment, 10 μL of MTT solution (5 mg/mL) was added to each well. After 4 h incubation, the medium was aspirated, and the formazan salts dissolved in 200 μL DMSO/well for 10 min at 37 °C. The absorbance was read at 570 nm (OD 570 nm). Data are represented as mean ± SD of two independent experiments.
(§3) Statistical and data analysis was performed using GraphPad Prism (v10). IC50 values were calculated using a three-parameter non-linear regression model with log(inhibitor) vs. response. For the TxrR activity statistics, the groups were compared using a two-way ANOVA followed by Dunnett’s multiple comparisons with alpha = 0.05. The correlation between IC50 values and TxrR activity was achieved using Pearson correlation with alpha = 0.05.

[2] = tested on: TrxR in H522 cell lysates; experiment: Thioredoxin reductase activity in lysates of treated H522 cells; assay type: cell-based, human; settings: for Mean Diff. TrxR activity vs. veh: H522 lysate, 24 h treatment at 5 μM
Description: The enzymatic activity of TrxR in the A549 and H522 cell lysates was measured using the TrxR assay Kit (Abcam ab83463) following the manufacturer’s instructions. This kit is based on the TxrR-mediated reduction of the colorless DTNB into TNB2—(yellow). Briefly, cells were plated to reach 70% confluence on a 100-mm dish in one day. They were treated with 5 μM of the gold compounds or the equivalent quantity of DMSO for 24 h. Then, cells were washed in PBS 1X, detached, and lysed in 100 μL of cold TrxR assay buffer supplemented with the Proteinase Inhibitor Cocktail. 20 μg and 40 μg of total proteins were used for the A549 and the H522, respectively. The DTNB substrate was added to samples with or without TrxR inhibitor (provided with the kit) in 96-well plates. The OD412 was measured soon after the substrate addition (A1) and then after 25, 60, 90, and 110 min (An) at 25 °C using a FLUOstar Omega Microplate Reader (BGM Labtech, Chicago, IL, USA). Data analysis was performed following the manufacturer’s instructions. The OD of TNB2, generated by TrxR in every condition, is:ΔA412 nm = (AnAB − AnINH) − (AB − A1INH) where AB is the assay buffer, and INH is the inhibitor. The TrxR activity is:(2) ΔB/Tn−T1×mg of protein lysate×sample dilution factor=(nmol/min)/mg=mU/mg where ΔB is the TNB amount calculated applying ΔA412 nm to TNB standard curve (in nmol), T1 is the time of the first reading (A1AB, and A1INH) (in min), Tn is the time of the second reading (AnAB and AnINH) (in min). The residual TxrR activity (%) was calculated by normalizing the TxrR activity for each compound with the matching vehicle values at every n time point.
as §3

[3] = molecular target: T1, recombinant human DHFR (hDHFR) (Homo sapiens, UniProt P00374); experiment: Cell-free human dihydrofolate reductase enzymatic activity; assay type: biochemical; settings: for effect on hDHFR enzymatic activity: H2F sub-saturating (~20 µM) and close to Km (~3 µM)
T1 construct: made in house; host or cells: E. coli BL21, plasmid pET17b (gift of C. Robert Matthews)
T1 sequence (P00374 1-187): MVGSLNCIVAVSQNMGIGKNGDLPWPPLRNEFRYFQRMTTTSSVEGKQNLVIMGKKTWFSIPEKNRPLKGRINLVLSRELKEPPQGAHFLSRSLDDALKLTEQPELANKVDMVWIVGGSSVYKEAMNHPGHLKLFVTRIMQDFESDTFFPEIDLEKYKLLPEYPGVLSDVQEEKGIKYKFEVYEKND
Description: Recombinant human DHFR was overexpressed and purified from pET17b (+) encoding the hDHFR gene/BL21 (Novagene® (Hong Kong, China)) E. coli cells as described in the literature. The protein purity was verified as a single band in Coomassie-stained SDS-PAGE. The concentration of the hDHFR was measured spectrophotometrically at 280 nm using the extinction coefficient of 28,400 M^−1 cm^−1 and resulted to be equal to 14 µM. The activity of the DHFR was followed by recording the absorbance over time at 340 nm in a UV-VIS spectrophotometer Shimadzu UV-2450. The procedure consisted of mixing the 50 mM Hepes buffer (pH 7.3) with saturating concentration NADPH ([…]) and […] hDHFR, incubating at 37 °C for 5 min, and starting the reaction by adding H2F at various concentrations. When testing the inhibition capacity of gold complexes, the reaction mixture was prepared by adding increasing concentrations of the tested compounds before the incubation at 37 °C. Since the gold complexes were solubilized in 100% methanol (HPLC-grade, Carlo Erba), the enzymatic activity of hDHFR was also assessed in the presence of the equal volumes of MeOH used in the assays with the gold complexes and eventually subtracted. Data are represented as mean ± SEM of 2 independent experiments and analyzed according to best-fit models using GraphPad Prism (v10).
For the data analysis of hDHFR enzymatic activity, the sigmoidal non-linear fitting model in the GraphPad Prism (v10) was used, in which the concentration of inhibitor was expressed as concentrations: Y = Bottom + (Top − Bottom)/(1 + (IC50/X)^HillSlope). Figures were partially prepared with BioRender (https://app.biorender.com) accessed on 25 July 2024).

[4] = tested on: H661; experiment: MTT viability assay, H661; assay type: cell-based, human; settings: mean ± span, 48 h treatment, cell line without KRAS mutation
Description: as §1, §2, §3

[5] = tested on: H522; experiment: MTT viability assay, H522; assay type: cell-based, human; settings: mean ± span, 48 h treatment, cell line without KRAS mutation
Description: as §1, §2, §3

[6] = tested on: H1792; experiment: MTT viability assay, H1792; assay type: cell-based, human; settings: mean ± span, 48 h treatment, cell line with KRAS mutation
Description: as §1, §2, §3

[7] = tested on: H1395; experiment: MTT viability assay, H1395; assay type: cell-based, human; settings: mean ± span, 48 h treatment, cell line without KRAS mutation
Description: as §1, §2, §3

[8] = tested on: H157; experiment: MTT viability assay, H157; assay type: cell-based, human; settings: mean ± span, 48 h treatment, cell line with KRAS mutation
Description: as §1, §2, §3

[9] = tested on: human NSCLC cell lines with KRAS mutations; experiment: MTT assay, average across NSCLC cell lines with KRAS mutations; assay type: cell-based; settings: 48 h, read-out: IC50 * averaged values
Description: as §1, §2, §3

Compound | IC50 [1] [µM] | Mean Diff. TrxR activity vs. veh ([2]; reading at 25 min) [%] | Mean Diff. TrxR activity vs. veh ([2]; reading at 60 min) [%] | Mean Diff. TrxR activity vs. veh ([2]; reading at 90 min) [%] | Mean Diff. TrxR activity vs. veh ([2]; reading at 110 min) [%] | effect on hDHFR enzymatic activity [3] | IC50 [4] [µM] | IC50 [5] [µM] | IC50 [6] [µM] | IC50 [7] [µM] | IC50 [8] [µM] | IC50 [9] [µM] | other results
Cn1cc[n+](C)[c]1[Au-2]([Cl])[P+](c1ccccc1)(c1ccccc1)c1ccccc1 [Compound 8] | 6.4 ± 0.65 | −81.92 | −82.1 | −91.89 | −88.27 | important inhibitory function | 1.1 ± 1.1 | 3.3 ± 0.93 | 15 ± 1.1 | 5.9 ± 0.97 | 17 ± 1.2 | 11 | TrxR activity reduction / inhibition ([2]; H522, 24 h treatment, stated for both cell lines): more than 80%; IC50 ([3]; H2F concentration 3.89 µM, sigmoidal fit, read-out: hDHFR IC50): 15 ± 1.25 µM; IC50 ([3]; H2F concentration 22.6 µM, sigmoidal fit, read-out: hDHFR IC50): 14.8 ± 1.25 µM; reduction of the enzymatic activity of hDHFR (conclusions) ([3]; dihydrofolate concentration comparable with the Km): 80%; IC50 ([3]; dihydrofolate concentration comparable with the Km, read-out: hDHFR IC50 (conclusions)): ~15 µM
Clc1n[c]([Au-][P+](c2ccccc2)(c2ccccc2)c2ccccc2)n(Cc2ccccc2)c1Cl [Compound 7] | 7.8 ± 0.61 | −57.19 | −91.41 | −90.61 | −89.86 | very little effect on the enzymatic activity | 0.95 ± 1 | 6.5 ± 0.97 | 12 ± 1.04 | 6.3 ± 0.98 | 8.5 ± 1.2 | 10 | magnitude of inhibition, hDHFR ([3]; H2F concentration 3.47 µM): ~ 50%; IC50 ([3]; H2F concentration 3.47 µM, read-out: hDHFR IC50): 10.9 ± 9.77 µM; magnitude of inhibition, hDHFR ([3]; H2F concentration 21.0 µM): ~ 50%; IC50 ([3]; H2F concentration 21.0 µM, read-out: hDHFR IC50): 23.6 ± 20.7 µM
